# Activity calls are given as the source filed them. No cut-off for these calls is given here.
# Experiments:
# Focal adhesion kinase 1 [1] = target: T1, Focal adhesion kinase 1 (Homo sapiens, UniProt Q05397); assay: Inhibition of FAK (unknown origin) using Fluorescein-Poly GAT as substrate incubated for 30 mins and measured after 60 mins by Lanthascreen assay
# Target sequence in this assay (Q05397 whole entry): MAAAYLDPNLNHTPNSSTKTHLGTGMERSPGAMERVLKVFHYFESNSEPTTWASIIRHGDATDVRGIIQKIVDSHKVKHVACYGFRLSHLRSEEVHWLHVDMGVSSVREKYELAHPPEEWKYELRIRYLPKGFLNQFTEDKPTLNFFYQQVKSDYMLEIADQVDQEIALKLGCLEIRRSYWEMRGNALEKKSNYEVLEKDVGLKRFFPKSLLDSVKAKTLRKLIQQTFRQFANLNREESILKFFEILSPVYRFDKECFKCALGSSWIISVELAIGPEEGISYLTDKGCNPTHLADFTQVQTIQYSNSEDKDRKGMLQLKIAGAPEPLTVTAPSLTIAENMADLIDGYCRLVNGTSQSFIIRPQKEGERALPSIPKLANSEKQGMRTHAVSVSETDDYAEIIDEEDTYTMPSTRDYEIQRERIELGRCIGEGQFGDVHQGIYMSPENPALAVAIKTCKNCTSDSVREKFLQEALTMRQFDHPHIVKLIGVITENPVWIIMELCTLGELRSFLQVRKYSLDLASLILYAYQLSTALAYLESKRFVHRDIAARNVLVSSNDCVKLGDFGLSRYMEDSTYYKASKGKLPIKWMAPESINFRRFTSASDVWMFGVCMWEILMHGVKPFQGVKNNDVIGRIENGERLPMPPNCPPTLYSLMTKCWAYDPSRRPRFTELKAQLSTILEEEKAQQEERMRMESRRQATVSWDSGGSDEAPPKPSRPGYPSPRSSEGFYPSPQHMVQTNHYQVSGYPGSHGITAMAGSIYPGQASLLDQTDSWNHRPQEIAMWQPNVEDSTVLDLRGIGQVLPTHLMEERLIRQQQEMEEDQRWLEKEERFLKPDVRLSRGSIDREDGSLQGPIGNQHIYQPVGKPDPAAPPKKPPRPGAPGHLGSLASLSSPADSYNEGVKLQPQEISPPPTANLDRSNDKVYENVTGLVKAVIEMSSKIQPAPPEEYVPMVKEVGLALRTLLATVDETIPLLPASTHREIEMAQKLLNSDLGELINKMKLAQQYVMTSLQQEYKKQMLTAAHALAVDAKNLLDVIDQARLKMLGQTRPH
# [2] = Aqueous solubility of compound; format: physicochemical; details: aqueous (not further specified)
# [3] = target: Dual specificity protein kinase CLK4 (Homo sapiens) (UniProt Q9HAZ1); assay: Inhibition of CLK4 (unknown origin) at 1 uM incubated for 40 mins in presence of Mg/ATP mix relative to control
# [4] = target: Serine/threonine-protein kinase 33 (Homo sapiens) (UniProt Q9BYT3); assay: Inhibition of STK33 (unknown origin) at 1 uM incubated for 40 mins in presence of Mg/ATP mix relative to control
# Focal adhesion kinase 1 [5] = target: T1, Focal adhesion kinase 1; details: PA-1, dose 10.0 nM
# Target sequence in this assay (Q05397 2-1052 limits assumed): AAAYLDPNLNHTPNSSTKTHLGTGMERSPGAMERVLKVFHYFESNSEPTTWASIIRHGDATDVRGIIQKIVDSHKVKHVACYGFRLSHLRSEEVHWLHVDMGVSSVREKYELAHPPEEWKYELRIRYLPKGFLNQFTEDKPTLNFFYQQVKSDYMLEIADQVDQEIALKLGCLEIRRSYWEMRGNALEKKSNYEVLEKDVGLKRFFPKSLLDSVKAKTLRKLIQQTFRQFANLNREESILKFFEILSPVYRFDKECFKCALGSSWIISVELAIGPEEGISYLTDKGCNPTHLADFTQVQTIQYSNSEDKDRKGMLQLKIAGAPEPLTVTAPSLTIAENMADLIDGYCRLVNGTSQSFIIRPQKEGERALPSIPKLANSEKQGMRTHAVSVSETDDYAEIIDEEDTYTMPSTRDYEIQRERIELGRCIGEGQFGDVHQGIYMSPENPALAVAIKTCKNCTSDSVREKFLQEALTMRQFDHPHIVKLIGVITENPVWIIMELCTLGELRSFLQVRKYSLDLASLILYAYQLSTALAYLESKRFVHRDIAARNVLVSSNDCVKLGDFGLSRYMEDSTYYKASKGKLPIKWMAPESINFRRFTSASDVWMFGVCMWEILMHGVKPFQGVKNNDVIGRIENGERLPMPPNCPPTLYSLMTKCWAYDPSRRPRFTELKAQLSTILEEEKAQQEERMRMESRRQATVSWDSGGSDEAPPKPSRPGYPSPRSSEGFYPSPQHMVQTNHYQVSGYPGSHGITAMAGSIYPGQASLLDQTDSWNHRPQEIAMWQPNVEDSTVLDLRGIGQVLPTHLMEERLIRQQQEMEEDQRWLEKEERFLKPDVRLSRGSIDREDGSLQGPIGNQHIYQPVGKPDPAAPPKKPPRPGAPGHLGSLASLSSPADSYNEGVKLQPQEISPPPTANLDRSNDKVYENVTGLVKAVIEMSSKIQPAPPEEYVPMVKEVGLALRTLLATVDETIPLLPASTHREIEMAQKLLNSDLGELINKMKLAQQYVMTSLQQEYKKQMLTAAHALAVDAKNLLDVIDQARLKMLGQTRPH
# Description: Inhibition of FAK in human PA-1 cells assessed as suppression of FAK autophosphorylation at 10 nM and measured by Western blotting analysis
# [6] = Metabolic stability in human liver microsomes assessed as half-life incubated for 120 mins in presence of NADPH by LC-MS/MS analysis; format: ADME, Microsome
# [7] = Cmax in Sprague-Dawley rat at 20 mg/kg, po; format: ADME, organism-based; design: dose 20 mg/kg, route po; details: in vivo
# [8] = Toxicity in female BALB/c nude mouse xenografted with human PA-1 cells assessed as effect on body weight at 60 mg/kg, po administered once daily for 21 days; format: organism-based; details: in vivo, 504 h, time 21 day
# [9] = Toxicity in female BALB/c nude mouse xenografted with human PA-1 cells assessed as liver damage at 60 mg/kg, po administered once daily for 21 days; format: organism-based; details: in vivo, 504 h, time 21 day
# [10] = Half-life in Sprague-Dawley rat at 20 mg/kg, po; format: ADME, organism-based; details: in vivo
# ES-2 = assay: Antimetastatic activity against human ES2 cells xenografted in mouse assessed as decrease in the number of peritoneal nodules at 60 mg/kg, po administered daily for 12 days; format: functional, organism-based; details: time 12.0 day
# [11] = Toxicity in female BALB/c nude mouse xenografted with human PA-1 cells assessed as lung damage at 60 mg/kg, po administered once daily for 21 days; format: organism-based; details: in vivo, 504 h, time 21 day
# [12] = target: Tyrosine-protein kinase Fes/Fps (Homo sapiens) (UniProt P07332); assay: Inhibition of Fes (unknown origin) at 1 uM incubated for 40 mins in presence of Mg/ATP mix relative to control
# PA-1 [13] = assay: Down-regulation of MMP-2 expression in human PA-1 cells at 2 uM measured after 0.5 to 6 hrs; format: functional, cell-based; details: time 0.5-6 hrs
# [14] = Metabolic stability in human liver microsomes assessed as intrinsic clearance incubated for 120 mins in presence of NADPH by LC-MS/MS analysis; format: ADME, Microsome; details: read-out: CLH
# [15] = Toxicity in female BALB/c nude mouse xenografted with human PA-1 cells assessed as kidney damage at 60 mg/kg, po administered once daily for 21 days; format: organism-based; details: in vivo, 504 h, time 21 day
# PA-1 [16] = assay: Antitumor activity against human PA-1 cells xenografted in female BALB/c nude mouse assessed tumor growth inhibition at 60 mg/kg, po administered once daily for 21 days; format: functional; details: PA-1, 504 h, time 21 day, read-out: TGI
# [17] = AUC (total) in Sprague-Dawley rat at 20 mg/kg, po; format: ADME, organism-based; design: dose 20 mg/kg, route po; details: in vivo
# [18] = target: Dual specificity protein kinase CLK1 (Homo sapiens) (UniProt P49759); assay: Inhibition of CLK1 (unknown origin) at 1 uM incubated for 40 mins in presence of Mg/ATP mix relative to control
# [19] = target: Leucine-rich repeat serine/threonine-protein kinase 2 (Homo sapiens) (UniProt Q5S007); assay: Inhibition of LRRK2 (unknown origin) at 1 uM incubated for 40 mins in presence of Mg/ATP mix relative to control
# [20] = Metabolic stability in human liver microsomes assessed as parent compound remaining incubated for 120 mins in presence of NADPH by LC-MS/MS analysis; format: ADME, Microsome; details: read-out: Stability
# PA-1 [21] = assay: Inhibition of migration of human PA-1 cells at 2 uM measured after 24 hrs by Transwell assay; format: functional, cell-based
# PA-1 [22] = assay: Down-regulation of MMP-9 expression in human PA-1 cells at 2 uM measured after 0.5 to 6 hrs; format: functional, cell-based; details: time 0.5-6 hrs
# [23] = Toxicity in female BALB/c nude mouse xenografted with human PA-1 cells assessed as spleen damage at 60 mg/kg, po administered once daily for 21 days; format: organism-based; details: in vivo, 504 h, time 21 day
# [24] = target: ALK tyrosine kinase receptor (Homo sapiens) (UniProt Q9UM73); assay: Inhibition of ALK (unknown origin) at 1 uM incubated for 40 mins in presence of Mg/ATP mix relative to control
# [25] = Tmax in Sprague-Dawley rat at 20 mg/kg, po; format: ADME, organism-based; details: in vivo
# [26] = AUClast in Sprague-Dawley rat at 20 mg/kg, po; format: ADME, organism-based; design: time 0 - last, dose 20 mg/kg, route po; details: in vivo
# [27] = Toxicity in female BALB/c nude mouse xenografted with human PA-1 cells assessed as heart damage at 60 mg/kg, po administered once daily for 21 days; format: organism-based; details: in vivo, 504 h, time 21 day
# PA-1 [28] = assay: Inhibition of invasion of human PA-1 cells at 2 uM measured after 24 hrs by Transwell assay; format: functional, cell-based
# Sequence of Serine/threonine-protein kinase 33 (Homo sapiens) (Q9BYT3 whole entry, looked up): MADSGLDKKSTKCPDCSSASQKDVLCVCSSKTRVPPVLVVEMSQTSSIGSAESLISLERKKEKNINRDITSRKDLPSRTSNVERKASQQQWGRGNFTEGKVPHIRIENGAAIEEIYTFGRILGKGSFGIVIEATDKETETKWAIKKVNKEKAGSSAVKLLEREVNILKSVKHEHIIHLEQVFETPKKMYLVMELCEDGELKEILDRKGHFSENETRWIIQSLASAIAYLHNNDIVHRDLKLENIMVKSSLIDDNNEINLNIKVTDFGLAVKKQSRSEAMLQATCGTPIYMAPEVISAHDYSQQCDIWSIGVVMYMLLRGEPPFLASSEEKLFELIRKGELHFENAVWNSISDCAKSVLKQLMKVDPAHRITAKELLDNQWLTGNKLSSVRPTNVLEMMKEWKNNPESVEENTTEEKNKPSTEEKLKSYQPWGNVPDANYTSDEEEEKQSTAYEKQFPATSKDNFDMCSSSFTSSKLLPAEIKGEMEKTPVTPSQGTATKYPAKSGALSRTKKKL
# Sequence of Dual specificity protein kinase CLK1 (Homo sapiens) (P49759 whole entry, looked up): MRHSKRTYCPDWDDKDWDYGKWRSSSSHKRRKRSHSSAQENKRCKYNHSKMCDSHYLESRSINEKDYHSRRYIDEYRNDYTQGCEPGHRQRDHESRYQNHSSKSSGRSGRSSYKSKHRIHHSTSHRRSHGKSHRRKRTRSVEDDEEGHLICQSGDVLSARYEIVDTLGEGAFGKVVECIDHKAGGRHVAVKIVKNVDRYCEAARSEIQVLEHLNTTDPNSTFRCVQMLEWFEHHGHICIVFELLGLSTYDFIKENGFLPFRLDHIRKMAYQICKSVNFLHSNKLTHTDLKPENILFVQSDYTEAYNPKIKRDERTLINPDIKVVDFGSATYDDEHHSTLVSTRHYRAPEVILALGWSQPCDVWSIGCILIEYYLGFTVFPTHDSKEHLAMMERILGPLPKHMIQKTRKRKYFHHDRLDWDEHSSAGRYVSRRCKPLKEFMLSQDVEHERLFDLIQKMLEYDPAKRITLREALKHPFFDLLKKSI
# Sequence of Dual specificity protein kinase CLK4 (Homo sapiens) (Q9HAZ1 whole entry, looked up): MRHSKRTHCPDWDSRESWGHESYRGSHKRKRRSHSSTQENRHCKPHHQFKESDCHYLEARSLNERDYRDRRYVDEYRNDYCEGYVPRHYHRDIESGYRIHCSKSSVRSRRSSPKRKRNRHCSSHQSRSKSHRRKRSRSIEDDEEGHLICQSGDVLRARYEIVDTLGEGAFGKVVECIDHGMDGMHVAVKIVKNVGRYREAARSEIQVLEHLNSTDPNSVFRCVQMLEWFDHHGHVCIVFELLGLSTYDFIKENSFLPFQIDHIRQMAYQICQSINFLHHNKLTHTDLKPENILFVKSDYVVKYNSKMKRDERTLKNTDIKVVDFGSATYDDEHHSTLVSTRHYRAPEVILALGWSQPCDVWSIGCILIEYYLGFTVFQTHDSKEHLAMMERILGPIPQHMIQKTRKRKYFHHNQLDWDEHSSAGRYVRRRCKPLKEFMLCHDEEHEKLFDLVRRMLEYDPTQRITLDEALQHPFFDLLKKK
# Sequence of Tyrosine-protein kinase Fes/Fps (Homo sapiens) (P07332 whole entry): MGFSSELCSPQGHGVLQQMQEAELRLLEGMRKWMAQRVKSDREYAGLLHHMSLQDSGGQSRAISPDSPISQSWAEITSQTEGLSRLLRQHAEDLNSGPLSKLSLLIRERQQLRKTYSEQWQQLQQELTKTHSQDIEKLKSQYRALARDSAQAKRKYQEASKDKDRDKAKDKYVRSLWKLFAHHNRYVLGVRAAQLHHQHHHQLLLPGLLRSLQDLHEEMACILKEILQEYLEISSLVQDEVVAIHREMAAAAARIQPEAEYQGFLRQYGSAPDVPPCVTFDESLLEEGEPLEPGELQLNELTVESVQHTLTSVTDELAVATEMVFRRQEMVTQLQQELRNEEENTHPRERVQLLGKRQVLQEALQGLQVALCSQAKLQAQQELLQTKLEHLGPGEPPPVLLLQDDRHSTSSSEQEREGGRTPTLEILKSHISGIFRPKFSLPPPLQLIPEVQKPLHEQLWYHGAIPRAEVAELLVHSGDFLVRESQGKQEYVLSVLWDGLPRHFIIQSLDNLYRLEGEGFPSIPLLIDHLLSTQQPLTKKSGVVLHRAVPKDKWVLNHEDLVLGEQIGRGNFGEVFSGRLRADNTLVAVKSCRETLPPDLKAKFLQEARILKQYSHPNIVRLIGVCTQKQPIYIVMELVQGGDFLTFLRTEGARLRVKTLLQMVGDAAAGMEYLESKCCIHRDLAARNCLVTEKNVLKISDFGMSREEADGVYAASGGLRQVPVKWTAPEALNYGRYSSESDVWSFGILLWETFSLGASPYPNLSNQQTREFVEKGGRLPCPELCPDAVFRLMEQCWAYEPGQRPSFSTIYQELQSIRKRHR
smiles,measurement,setting,value
CN1CCN(c2ccc(Nc3nc(Oc4cccc5c4C(=O)CC5)c4cc[nH]c4n3)c(C(F)(F)F)c2)CC1,IC50,Focal adhesion kinase 1 [1],99.8 nM
CN1CCN(c2ccc(Nc3nc(Oc4cccc5c4C(=O)CC5)c4cc[nH]c4n3)cc2)CC1,IC50,Focal adhesion kinase 1 [1],10.5 nM
COc1cc(N2CCC(N3CCN(C)CC3)CC2)ccc1Nc1nc(-c2cnn(C)c2)c2cc[nH]c2n1,IC50,Focal adhesion kinase 1 [1],173 nM
COc1cc(N2CCN(C)CC2)ccc1Nc1nc(-n2cnc3ccccc32)c2cc[nH]c2n1,IC50,Focal adhesion kinase 1 [1],36.8 nM
CN1CCN(c2ccc(Nc3nc(Oc4cccc5c4C(=O)CC5)c4cc[nH]c4n3)cc2F)CC1,IC50,Focal adhesion kinase 1 [1],5.64 nM
COc1cc(C(=O)NC2CCNCC2)ccc1Nc1nc(Oc2cccc3c2C(=O)CC3)c2cc[nH]c2n1,solubility,[2],456 µg/mL
same,inhibition,[3],97%
same,inhibition,[4],92%
same,inhibition,Focal adhesion kinase 1 [5],Active
same,half-life,[6],1.88 h
same,Cmax,[7],21.7 ng/mL
same,Activity,[8],Non-Toxic
same,IC50,Focal adhesion kinase 1 [1],1.89 nM
same,Activity,[9],Non-Toxic
same,half-life,[10],4.08 h
same,Activity,ES-2,Active
same,Activity,[11],Non-Toxic
same,inhibition,[12],96%
same,Activity,PA-1 [13],Active
same,CLint scaled,[14],7.7 mL/min/kg
same,Activity,[15],Non-Toxic
same,inhibition in vivo at 60 mg/kg,PA-1 [16],72.5%
same,AUC,[17],78.8 ng·h/mL
same,inhibition,[18],92%
same,inhibition,[19],100%
same,remaining at 2 h,[20],48.6%
same,inhibition,PA-1 [21],Active
same,Activity,PA-1 [22],Active
same,Activity,[23],Non-Toxic
same,inhibition,[24],87%
same,Tmax,[25],0.28 h
same,AUC(0-t),[26],59.6 ng·h/mL
same,Activity,[27],Non-Toxic
same,inhibition,PA-1 [28],Active
COc1cc(N2CCOCC2)ccc1Nc1nc(Oc2cccc3c2C(=O)CC3)c2sccc2n1,IC50,Focal adhesion kinase 1 [1],113 nM
COc1cc(N2CCN(C)CC2)ccc1Nc1nc(Oc2cccc3c2C(=O)CC3)c2[nH]ccc2n1,IC50,Focal adhesion kinase 1 [1],> 1000 nM
COc1cc(N2CCN(C)CC2)ccc1Nc1nc(Oc2cccc3c2C(=O)CC3)c2sccc2n1,IC50,Focal adhesion kinase 1 [1],41.4 nM
O=C1CCc2cccc(Oc3nc(Nc4ccc(N5CCOCC5)cc4)nc4[nH]ccc34)c21,IC50,Focal adhesion kinase 1 [1],12.2 nM
COc1cc(N2CCN(C)CC2)ccc1Nc1nc(Oc2ccc(C)c3c2C(=O)CC3)c2cc[nH]c2n1,solubility,[2],7.9 µg/mL
same,half-life,[6],1.65 h
same,IC50,Focal adhesion kinase 1 [1],2.04 nM
same,CLint scaled,[14],8.8 mL/min/kg
same,remaining at 2 h,[20],42.2%
O=C1CCc2cccc(Oc3nc(Nc4ccc(N5CCOCC5)cc4)nc4ccccc34)c21,IC50,Focal adhesion kinase 1 [1],> 1000 nM
CN1CCN(C2CCN(c3ccc(Nc4nc(Oc5cccc6c5C(=O)CC6)c5cc[nH]c5n4)cc3)CC2)CC1,solubility,[2],39.4 µg/mL
same,half-life,[6],1.55 h
same,IC50,Focal adhesion kinase 1 [1],2.91 nM
same,CLint scaled,[14],93 mL/min/kg
same,remaining at 2 h,[20],42.2%
COc1cc(N2CCC(N3CCN(C)CC3)CC2)ccc1Nc1nc(Oc2cccc3c2C(=O)CC3)c2ccsc2n1,IC50,Focal adhesion kinase 1 [1],945 nM
COc1cc(N2CCN(C)CC2)ccc1Nc1nc(Oc2cccc3c2C(=O)CC3)c2cc[nH]c2n1,solubility,[2],13.6 µg/mL
same,half-life,[6],> 2 h
same,IC50,Focal adhesion kinase 1 [1],3.86 nM
same,CLint scaled,[14],52 mL/min/kg
same,remaining at 2 h,[20],62.7%
COc1nc(N2CCN(C)CC2)ccc1Nc1nc(Oc2cccc3c2C(=O)CC3)c2cc[nH]c2n1,IC50,Focal adhesion kinase 1 [1],9.05 nM
O=C1CCc2cccc(Oc3nc(Nc4ccc(N5CCOCC5)cc4)nc4sccc34)c21,IC50,Focal adhesion kinase 1 [1],> 1000 nM
CN1CCN(c2ccc(Nc3nc(Oc4cccc5c4C(=O)CC5)c4ccsc4n3)cc2)CC1,IC50,Focal adhesion kinase 1 [1],> 1000 nM
CN1CCN(c2ccc(Nc3nc(Oc4cccc5c4C(=O)CC5)c4ccccc4n3)cc2)CC1,IC50,Focal adhesion kinase 1 [1],> 1000 nM
COc1cc(N2CCOCC2)ccc1Nc1nc(Oc2cccc3c2C(=O)CC3)c2ccsc2n1,IC50,Focal adhesion kinase 1 [1],> 1000 nM
Cc1cc(Nc2nc(Oc3cccc4c3C(=O)CC4)c3cc[nH]c3n2)ccc1OCCN(C)C,solubility,[2],9.3 µg/mL
same,half-life,[6],0.867 h
same,IC50,Focal adhesion kinase 1 [1],3.93 nM
same,CLint scaled,[14],16.7 mL/min/kg
same,remaining at 2 h,[20],19.8%
COc1cc(N2CCC(N3CCN(C)CC3)CC2)ccc1Nc1nc(Oc2cccc3c2C(=O)CC3)c2[nH]ccc2n1,IC50,Focal adhesion kinase 1 [1],> 1000 nM
COc1cc(N2CCC(N3CCN(C)CC3)CC2)ccc1Nc1nc(-n2ccc3ccccc32)c2cc[nH]c2n1,IC50,Focal adhesion kinase 1 [1],144 nM
COc1cc(C(=O)NC2CC2)ccc1Nc1nc(Oc2cccc3c2C(=O)CC3)c2cc[nH]c2n1,IC50,Focal adhesion kinase 1 [1],10.9 nM
COc1cc(N2C[C@@H](C)O[C@@H](C)C2)ccc1Nc1nc(Oc2cccc3c2C(=O)CC3)c2cc[nH]c2n1,IC50,Focal adhesion kinase 1 [1],11.9 nM
